According to the supplement of paper PMC4862054:

Experiments:
Assay in all cases: normalised response (% of control), CellTox Green; higher = less cell death (100 = DMSO, 0 = benzethonium chloride kill control)
Details in all cases: incubation time: 72 h
BT-474 = system: BT-474
Outline: (§1)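 After 72 h with compound in 384-well plates, breast cancer cell lines seeded as 20 µl suspension were read for CellTox Green fluorescence at 485/520 nm. CellTiter-Glo luminescence was then read after 10 min at room temperature. Compound was present at 5 concentrations in 10-fold steps over a 10,000-fold range set per compound, and plates were normalised to 0.1 % DMSO (100) and a positive kill control (0). Values are normalised signals, each at a single concentration.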

BT-549 = system: BT-549
Outline: as §1

CAL-148 = system: CAL-148
Outline: as §1

DU-4475 = system: DU-4475
Outline: as §1

HCC1143 = system: HCC1143
Outline: as §1

HCC1599 = system: HCC1599
Outline: as §1

HCC1937 = system: HCC1937
Outline: as §1

MFM-223 = system: MFM-223
Outline: as §1

HDQ-P1 = system: HDQ-P1
Outline: as §1

| SMILES | normalised response (BT-474) [%] | normalised response (BT-549) [%] | normalised response (CAL-148) [%] | normalised response (DU-4475) [%] | normalised response (HCC1143) [%] | normalised response (HCC1599) [%] | normalised response (HCC1937) [%] | normalised response (MFM-223) [%] | normalised response (HDQ-P1) [%] |
| --- | --- | --- | --- | --- | --- | --- | --- | --- | --- |
| CCN(CC)CCOc1ccc(C(=C(Cl)c2ccccc2)c2ccccc2)cc1 [Clomifene] (10000 nM) | 5.17 | 82.5 | 79.6 | 53.4 | 112 | 48.6 | -34.5 | 40.9 |  |
| CC[C@@H]1C(=O)N(C)c2cnc(Nc3ccc(C(=O)N[C@H]4CC[C@H](N5CCN(CC6CC6)CC5)CC4)cc3OC)nc2N1C(C)C [Volasertib] (1000 nM) | 94.7 | 71 | 85.8 | 90.4 | -18.9 | 74.2 | 59.1 | 70.6 | 31.2 |
| Cc1c(N)nc([C@H](CC(N)=O)NC[C@H](N)C(N)=O)nc1C(=O)N[C@H](C(=O)N[C@H](C)[C@@H](O)[C@H](C)C(=O)N[C@H](C(=O)NCCc1nc(-c2nc(C(=O)NCCC[S+](C)C)cs2)cs1)[C@@H](C)O)[C@@H](OC1OC(CO)C(O)C(O)C1OC1OC(CO)C(O)C(OC(N)=O)C1O)c1cnc[nH]1 (stereo partly specified) [Bleomycin] (10000 nM) | 93.2 | 82.7 | 47.9 | 92.1 | 93.6 | 84 | 80.1 | 94.4 | 95.6 |
| CCCCCOC(=O)Nc1nc(=O)n([C@@H]2O[C@H](C)[C@@H](O)[C@H]2O)cc1F [Capecitabine] (10000 nM) | 97.2 | 117 | 99.5 | 97.5 | 122 | 102 | 87.1 |  | 94.7 |
| NC(=O)c1cccc2cn(-c3ccc([C@@H]4CCCNC4)cc3)nc12 [MK-4827] (10000 nM) | 97.5 | 103 | 79.6 | 89.2 | 127 | 97.4 |  | 98.7 | 97.9 |
| C[C@]12C=CC(=O)C=C1CC[C@@H]1[C@@H]2C(=O)C[C@@]2(C)[C@H]1CC[C@]2(O)C(=O)CO [Prednisone] (10000 nM) | 101 | 99.6 | 100 | 103 | 118 | 102 | 98.8 | 100 | 114 |
| Cc1cc2c(F)c(Oc3ncnn4cc(OC[C@@H](C)O)c(C)c34)ccc2[nH]1 [Brivanib] (1000 nM) | 97.9 | 95.7 | 99.3 | 102 | 104 | 80.2 | 112 | 98.6 | 68.8 |
| CO[C@H](C(=O)[C@@H](O)[C@@H](C)O)[C@@H]1Cc2cc3cc(O[C@H]4C[C@@H](O[C@@H]5C[C@@H](O)[C@H](O)[C@@H](C)O5)[C@H](O)[C@@H](C)O4)c(C)c(O)c3c(O)c2C(=O)[C@H]1O[C@H]1C[C@@H](O[C@@H]2C[C@@H](O)[C@@H](O[C@@H]3C[C@](C)(O)[C@H](O)[C@@H](C)O3)[C@@H](C)O2)[C@H](O)[C@@H](C)O1 [Plicamycin] (10000 nM) | 96 | 79.8 | 68.9 | 87.9 | 82.2 | 87.9 | 114 | 88.4 | 82.1 |
| COc1cc2c(Oc3ccc(NC(=O)C4(C(=O)Nc5ccc(F)cc5)CC4)cc3F)ccnc2cc1OCCCN1CCOCC1 [Foretinib] (1000 nM) | 97.1 | 88.3 | 33.1 | 95.2 | 46 | 92 | 99.8 | 84.4 | 58.9 |
| O=C(O)CC[C@H]1CC[C@@](c2cc(F)ccc2F)(S(=O)(=O)c2ccc(Cl)cc2)CC1 [MK-0752] (1000 nM) | 104 | 107 |  | 104 | 88.8 | 109 | 104 | 57.7 | 110 |
